Test results from patent US20080200439A1, “Methods and compositions for modulating BK channel activity and vasodilation” (University of Tennessee Research Foundation, priority 2006, published 2008).

Biological target: native BK channels in rat cerebral artery myocytes (Rattus norvegicus, UniProt P97678+Q62976)
Assay: Inside-out patch-clamp of native BK channels in freshly isolated cerebral artery myocytes
Format: cell-based
Details: I/O patches, free Ca2+i 3 μM
Method: Myocyte Isolation. Basilar and middle cerebral arteries were dissected out from each brain under a stereozoom microscope (Nikon C-PS, Tokio, Japan) and placed into ice-cold “dissociation medium” (DM) (mM): 0.16 CaCl2, 0.49 EDTA, 10 HEPES, 5 KCl, 0.5 KH2PO4, 2 MgCl2, 110 NaCl, 0.5 NaH2PO4, 10 NaHCO3, 0.02 phenol red, 10 taurine, 10 glucose. Each artery was cut into 1-2 mm long rings (˜30 rings/experiment). Rings were put in 3 ml DM containing 0.03% papain, 0.05% bovine serum albumin (BSA) and 0.004% dithiothreitol (DTT) for 15 min at 37° C. in a polypropylene centrifuge tube, and then incubated in a shaking water bath at 37° C. and 60 oscillations/min. for 15 min. The prepartion was then centrifuged several times as described (Liu et al., 2004). […]
Electrophysiology. […] Single-channel and macroscopic currents were recorded from inside-out (I/O) or outside-out (O/O) patches. […] Nominal free Ca^2+ was calculated with MaxChelator Sliders (C. Patton, Stanford University, California, United States of America) and validated experimentally using Ca^2+-selective electrodes (Corning Incorporated Science Products Division, Corning, N.Y., United States of America). […]
Currents were recorded using an EPC8 amplifier (HEKA Electronics, Lambrecht/Pfalz, Germany) at 1 kHz using a low-pass, eight-pole Bessel filter 902LPF (Frequency Devices, Haverhill, Mass., United States of America). […]

Chain of native BK channels in rat cerebral artery myocytes (Q62976 1-1148 isoform Q62976-2): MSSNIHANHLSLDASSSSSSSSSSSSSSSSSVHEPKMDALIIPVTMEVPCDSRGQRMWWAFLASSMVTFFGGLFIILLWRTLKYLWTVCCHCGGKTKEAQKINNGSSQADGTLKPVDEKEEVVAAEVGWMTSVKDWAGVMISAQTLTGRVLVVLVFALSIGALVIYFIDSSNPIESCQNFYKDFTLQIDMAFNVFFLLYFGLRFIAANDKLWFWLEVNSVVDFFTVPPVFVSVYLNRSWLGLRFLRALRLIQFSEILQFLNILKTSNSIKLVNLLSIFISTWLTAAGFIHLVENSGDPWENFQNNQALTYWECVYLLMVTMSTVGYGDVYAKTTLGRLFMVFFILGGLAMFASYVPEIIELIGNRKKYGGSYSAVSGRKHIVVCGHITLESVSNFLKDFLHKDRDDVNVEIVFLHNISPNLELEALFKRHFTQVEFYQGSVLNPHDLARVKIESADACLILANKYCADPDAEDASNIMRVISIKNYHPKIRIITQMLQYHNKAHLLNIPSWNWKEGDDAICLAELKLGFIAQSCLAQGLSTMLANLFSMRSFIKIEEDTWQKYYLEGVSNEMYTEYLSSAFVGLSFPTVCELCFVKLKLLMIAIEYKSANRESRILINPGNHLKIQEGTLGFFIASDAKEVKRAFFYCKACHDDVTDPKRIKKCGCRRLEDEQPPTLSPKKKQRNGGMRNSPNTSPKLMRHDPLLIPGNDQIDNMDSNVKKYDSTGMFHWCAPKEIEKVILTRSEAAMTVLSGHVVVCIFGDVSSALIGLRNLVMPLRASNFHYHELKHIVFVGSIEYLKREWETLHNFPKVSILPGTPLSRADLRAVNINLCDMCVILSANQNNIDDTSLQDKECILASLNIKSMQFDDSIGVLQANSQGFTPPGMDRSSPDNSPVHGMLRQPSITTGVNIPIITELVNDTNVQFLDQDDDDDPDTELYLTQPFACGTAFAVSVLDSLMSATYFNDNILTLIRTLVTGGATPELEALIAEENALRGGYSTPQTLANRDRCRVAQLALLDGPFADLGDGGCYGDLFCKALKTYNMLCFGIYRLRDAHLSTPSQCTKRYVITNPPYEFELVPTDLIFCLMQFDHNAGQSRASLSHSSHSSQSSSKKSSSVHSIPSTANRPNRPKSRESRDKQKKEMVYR
Chain of native BK channels in rat cerebral artery myocytes (P97678 whole entry): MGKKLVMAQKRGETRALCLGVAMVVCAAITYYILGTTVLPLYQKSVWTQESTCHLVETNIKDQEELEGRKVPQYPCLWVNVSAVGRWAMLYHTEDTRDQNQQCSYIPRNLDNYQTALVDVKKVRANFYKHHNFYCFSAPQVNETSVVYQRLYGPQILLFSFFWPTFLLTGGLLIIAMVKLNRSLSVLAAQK

C[C@H](CCC(=O)O)[C@H]1CC[C@H]2[C@@H]3CC[C@@H]4C[C@H](O)CC[C@]4(C)[C@H]3CC[C@]12C [LC, 5β-cholanic acid 3α-ol]
EC50 (Vm −40 to −30 mV, read-out: EC50 for increase in NPo): 46 ± 6 µM | Emax (read-out: NPo at Emax (% of control)): 350%
